Data reported in patent publication US8236761B2, “C-Met receptor regulation by angiotensin IV (AT4) receptor ligands” (Washington State University Research Foundation, priority 2006, dated 2012).
Non-standard residues stand in square brackets, D forms with d. No end group written: not given here. Nle = CCCC[C@H](N)C(=O)O

Assays:
neovascularization = assay: Disc angiogenesis assay (subcutaneous sponge disc); assay type: in vivo, Sprague Dawley rats; conditions: 50 μg per disc core, 14 days, rat
Experimental: FIG. 19 depicts effects on angiogenesis of angiotensin-like factors in a rat in vivo disc angiogenesis assay. Vascularization was quantified by digital image analysis of fixed and stained discs recovered from animals 14 days after subcutaneous implantation of sponge discs containing the indicated compounds.
Disc Angiogenesis Assay. […] A 2 mm core was removed from the center of each disc, saturated with 50 μg of Nle^1-AngIV (SEQ ID NO:41), Nle^1-Leu^3-Ψ(CH2NH2)^3-4-AngIV, Hexamide, or ethanol (control), air dried, then sealed using a fixative (Elvax, DuPont) to allow sustained delivery of the drug treatment into the disc and adjacent tissues. The cores were dried for 30 min, then reinserted into the sponge discs. Impermeable top and bottom covers were prepared by coating 10 mm diameter paper discs with a plexiglass coating, then glued to the top and bottom of the sponge discs, leaving only the rim of the disc available for centripetal cellular penetration. Just prior to implantation, the discs were soaked briefly in sterile saline.
Thirty-two Sprague Dawley female rats (225-275 gr) were used to evaluate four compounds for angiogenic or anti-angiogenic properties using the disc angiogenesis assay. Animals were anesthetized using sodium pentobarbital (40 mg/kg IP). The dorsum was then shaved and aseptically prepped. Each animal received four discs. Animals receiving treated discs were implanted with 2 treated discs and 2 ethanol-soaked control discs. Thus, in a group of 4 animals there were 8 treatment discs, and 8 control discs. These control discs were used to determine whether the ligand had potential systemic effects. Another group of 4 animals received only ethanol-soaked control discs (spontaneous growth controls or SGC discs) for an n=16. However, one SGC was fragmented during processing leaving an n=15.
Four 2 cm cutaneous incisions were made along the dorsum (left thoracic, right thoracolumbar, left thoracolumbar, and right lumbar), and subcutaneous pouches opened in the fascia using blunt dissection. Discs were moistened in sterile saline, inserted deep to the pouch, and the skin closed with sterile surgical staples. Animals were recovered under heat lamps until sternally recumbent, then individually housed for 14 days in an AAALAC accredited facility (water and food ad libitum; 12/12 hour light cycle).
After 14 days the animals were euthanized in a CO2 chamber and the discs were removed. […] Cellular penetration into the discs was quantified using a digital imaging system (Imaging Research Inc., St. Catharines, Ontario, Canada). The total area of the disc was calculated, as was the area containing stained cells. […]
Results. Following staining with toludine blue or Factor VIII, neovascularization was quantitated by densitometry.

human endothelial cells = assay: Proliferation and migration of human endothelial cells; assay type: cell-based
[1] = tested on: HEK293 cell membranes (c-Met system); assay: 125I-Norleual binding assay, HEK293 cell membranes; design: species or system human; conditions: 1.5 nM HGF or 1 μM Norleual
Experimental: (§1) FIG. 3C: ^125I-Norleual was bound to HEK membranes in the presence or absence of 1.5 nM HGF (n=8) or 1 μM Norleual (n=6). Total binding is reported as percent control (n=10), (*p<0.001). Error bars indicate±SD. […] Error bars indicate SD and data points were performed in duplicate.
^125I-Norleual binding assay. HEK293 cells were grown to confluency in DMEM fortified with 10% FBS. Media was aspirated and cells were washed twice with ice-cold PBS. Cells were lysed with hypotonic buffer and homogenized as described by Zhang et al. (1999, J. Pharmacol. Exp. Ther. 289: 1075-1083; 2003 J. Cell Biochem. 88: 408-417). 450 μg of membrane protein was incubated with 1.5 nM ^125I-Norleual with or without Norleual or HGF in a total volume of 250 μl PBS, 0.1% BSA. Tubes were spun and binding was carried out for 60 minutes at RT. Bound and free ligands were separated by vacuum filtration using (Brandel Cell Harvester, Schleicher & Schull, Keene, N.H., USA) 32 glass filters. Radioactivity retained by the filters was measured using a gamma counter. […] Data analysis was preformed using Prism software (GraphicPad) per the supplier's recommendations.
Materials and methods were as described in Example 1. In separate tests of unlabeled competitors, both Norleual and HGF competed with ^125I-HGF for high affinity binding to mouse liver plasma membranes (FIGS. 2A, 2B). […]

c-Met receptor = assay: Cross-linking of 125I-COMPOUND 2 or 125I-HGF to HEK293 cell membranes with unlabeled competitor; assay type: binding, human; conditions: cross-linked, 1 nM competitor
Experimental: as §1
Briefly, COMPOUND 2 was iodinated with […] and bound and cross-linked to HEK cell membranes with or without 1 nM COMPOUND 2 or 1 nM hepatocyte growth factor. Following solubilization and separation of free label by molecular sieving, total radioactive counts were determined. The ability of the ligand COMPOUND 2 to compete with hepatocyte growth factor binding to the c-Met receptor was also tested using mouse liver plasma membranes and intact HEK293 cells. Briefly, mouse liver was homogenized and incubated with ^125I-HGF with various concentrations of HGF or COMPOUND 2. Membranes were pelleted and unbound label was removed by washing, and total radioactive counts were determined. Next, HEK293 cell membranes were cross-linked with ^125I-HGF with unlabeled HGF or COMPOUND 2.

c-Met = c-Met (Homo sapiens, UniProt P08581); assay: Immunoprecipitation/Western blot of HGF-dependent c-Met and Gab1 phosphorylation and association in HEK293 cells; assay type: cell-based; design: host or cells: HEK293; conditions: HEK293 cells, 10 minutes
Sequence of c-Met (P08581 308-1390 limits assumed): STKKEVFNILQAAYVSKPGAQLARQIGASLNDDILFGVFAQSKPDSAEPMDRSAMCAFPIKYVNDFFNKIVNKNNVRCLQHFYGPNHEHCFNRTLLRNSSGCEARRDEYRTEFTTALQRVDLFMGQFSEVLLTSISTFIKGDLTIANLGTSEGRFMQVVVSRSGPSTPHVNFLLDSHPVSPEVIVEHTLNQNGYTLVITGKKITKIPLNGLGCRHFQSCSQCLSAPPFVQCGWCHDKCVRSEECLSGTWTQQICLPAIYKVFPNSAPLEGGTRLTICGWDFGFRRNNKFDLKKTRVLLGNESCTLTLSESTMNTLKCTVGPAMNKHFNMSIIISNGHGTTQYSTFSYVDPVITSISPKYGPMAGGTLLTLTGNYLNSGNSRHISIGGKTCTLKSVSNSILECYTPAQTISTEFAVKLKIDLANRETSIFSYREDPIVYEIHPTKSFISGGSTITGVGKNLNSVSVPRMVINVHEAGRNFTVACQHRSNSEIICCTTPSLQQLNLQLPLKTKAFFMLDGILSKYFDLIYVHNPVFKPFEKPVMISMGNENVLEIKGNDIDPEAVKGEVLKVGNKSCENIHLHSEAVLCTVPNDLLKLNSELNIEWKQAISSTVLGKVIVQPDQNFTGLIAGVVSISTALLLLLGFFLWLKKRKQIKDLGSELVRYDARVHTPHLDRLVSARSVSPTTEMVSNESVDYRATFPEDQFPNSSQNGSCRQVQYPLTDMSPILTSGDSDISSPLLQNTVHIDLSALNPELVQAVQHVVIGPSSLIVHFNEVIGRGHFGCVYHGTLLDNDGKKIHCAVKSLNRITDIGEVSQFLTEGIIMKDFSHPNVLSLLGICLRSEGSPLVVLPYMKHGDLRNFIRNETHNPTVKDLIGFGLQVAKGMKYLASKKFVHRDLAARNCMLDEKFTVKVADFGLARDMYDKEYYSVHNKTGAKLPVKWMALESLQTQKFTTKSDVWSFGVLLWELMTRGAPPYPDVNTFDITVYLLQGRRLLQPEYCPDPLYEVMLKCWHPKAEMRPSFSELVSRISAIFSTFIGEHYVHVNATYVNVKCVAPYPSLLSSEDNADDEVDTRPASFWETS
Sequence of c-Met (P08581 25-307 limits assumed): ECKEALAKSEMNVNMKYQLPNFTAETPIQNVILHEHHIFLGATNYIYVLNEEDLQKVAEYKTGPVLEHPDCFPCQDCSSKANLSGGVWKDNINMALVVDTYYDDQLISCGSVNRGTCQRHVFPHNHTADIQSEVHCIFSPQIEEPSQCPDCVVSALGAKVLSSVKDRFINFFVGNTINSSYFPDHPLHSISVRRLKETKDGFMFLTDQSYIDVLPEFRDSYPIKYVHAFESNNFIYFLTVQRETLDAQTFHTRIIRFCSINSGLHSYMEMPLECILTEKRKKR
Experimental: (FIG. 5A) HEK293 cells were treated for 10 minutes with HGF at indicated concentrations. Lysates were immunoprecipitated (IP) with anti-c-Met antibody (DO-24) and immunoblotted (IB) with anti-c-Met or anti-phospho-tyrosine (06-427) antibody. (FIG. 5B) HEK293 cells were treated for 10 minutes with HGF and/or Norleual. Lysates were IP with anti-c-Met (DO-24) and IB with anti-c-Met (DQ-13) or anti-phospho-tyrosine (HAM 1676). (FIG. 5C) HEK293 lysates were IP with anti-c-Met (DO-24) and IB with anti-Gab1. (FIG. 5D) HEK 293 lysates were IP with anti-Gab1 and IB with anti-Gab1 or anti-phospho-tyrosine (HAM 1676). (FIGS. 5E, 5F, 5G) Relative amounts (normalized to % total c-Met in IP) of quantified IP/IB band intensities for control, 110 pM HGF-, 110 pM HGF and 20 pM Norleual-, and 20 pM Norleual-treated HEK293 cells for phospho-c-Met (FIG. 5E, n=4), phospho-Gab1 (FIG. 5F, n=4), and c-Met associated Gab1 (FIG. 5G, n=3). Error bars indicate ±SD.
HEK293 cells were treated for 10 minutes with HGF and/or Norleual at the indicated concentrations. Lysates were IP with anti-c-Met (DO-24, Millipore/Upstate, Billerica, Mass.) and IB with anti-c-Met (DQ-13, Millipore/Upstate) or anti-phosphotyrosine (HAM1676, lot JLB03, R&D Systems, Inc., Minneapolis, Minn.).
Immunoprecipitation and Western blotting. Cells were serum starved for two hours in DMEM before treatment. Cells were harvested using RIPA lysis buffer (Upstate Biotechnol. Inc., Lake Placid, N.Y.) with phosphatase inhibitor cocktails 1 and 2 (Sigma, St Louis, Mo., USA). Protein concentration was determined using the BCA assay (Pierce, Rockford, Ill., USA). Lysates were incubated with antibody overnight at 4° C. Immunoprecipitation controls received mouse non-specific Ig (Upstate). Proteins were captured with protein-A agarose (Upstate) and were washed with PBS. Proteins were resolved using SDS-PAGE electrophoresis (Criterion, BioRad, Hercules, Calif., USA), transferred to nitrocellulose, and incubated with appropriate antibodies. Proteins were visualized using the Supersignal West Pico Chemiluminescent Substrate system (Pierce). The film images were digitized and analyzed using TotalLab® software (AmershamPharmacia/GE HealthCare, Piscataway, N.J.).
Whether the interaction of Norleual with the c-Met receptor had functional consequences regarding c-Met signaling was next investigated by determining whether Norleual could alter the phosphorylation status of cellular protein tyrosine phosphate (FIG. 4) and more specifically, of c-Met (i.e., c-Met activation), and also whether Norleual could modulate Gab1 association with c-Met. Human embryonic kidney HEK293 cells were activated by HGF in the presence or absence of Norleual. Solubilized membranes were immunoprecipitated (IP) with an anti-c-Met antibody and immunoblotted (IB) for total c-Met, anti-phospho-tyrosine to detect the activated form of c-Met, and anti-Gab1 to detect c-Met/Gab1 association. […] To confirm these findings, treated HEK293 lysates were precipitated with anti-Gab1 and blotted for total Gab1 and phospho-Gab1, its activated form. Again, Norleual inhibited HGF-induced Gab1 phosphorylation (FIGS. 5D, […]).

Substance	Effect on angiogenesis in disc assay versus SGC discs (neovascularization)	Proliferation and migration of human endothelial cells (human endothelial cells)	Competition for 125I-Norleual specific binding to HEK293 cell membranes [1]	Effect on 125I-COMPOUND 2 binding to HEK cells (c-Met receptor)	Concentration at which c-Met auto-phosphorylation saturates (c-Met)
Nle-Tyr-Ile-His-Pro-Phe ([Nle]YIHPF) [Compound 1]	lone AT4 receptor agonist	augmented			
Nle-Tyr-Ile-His ([Nle]YIH) [Compound 3]	antagonist activity				
Nle-Tyr-Ile-6(amino) hexanoic acid amide [Compound 4]	antagonist activity				
HGF: Hepatocyte growth factor (SEQ ID NO:83), purchased from R&D systems; native ligand of the c-Met receptor			competed	blocked	550 pM
